Laboratory results: paper PMC5537074 (Journal of medicinal chemistry, 2017)
One block for each molecule: values may come before it.

What was measured:
[1] = tested on: cultured cells (adipocyte differentiation); conditions: cultured cells treated with compound; cited from earlier work
PPARγ = conditions: as compared to rosiglitazone; cited from earlier work
rodents = conditions: cited from earlier work
T2DM patients = conditions: cited from earlier work
[2] = target: T1, human GAL4-PPARγ-Hinge-LBD (Homo sapiens, UniProt P37231); test: Transactivation assay; format: cell-based; conditions: HEK293T cells, GAL4-PPARγ-Hinge-LBD / UAS-luciferase, 18 h incubation, doses 169 pM to 10 μM
T1 sequence (P37231 238-503 limits assumed): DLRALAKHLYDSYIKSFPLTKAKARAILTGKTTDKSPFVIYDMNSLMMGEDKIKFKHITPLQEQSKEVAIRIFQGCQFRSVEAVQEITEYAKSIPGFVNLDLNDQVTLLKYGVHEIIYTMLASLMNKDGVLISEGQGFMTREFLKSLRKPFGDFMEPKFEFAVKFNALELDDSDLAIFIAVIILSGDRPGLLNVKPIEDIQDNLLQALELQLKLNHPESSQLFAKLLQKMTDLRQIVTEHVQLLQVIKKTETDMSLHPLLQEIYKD

Molecule: CN(CCOc1ccc(CC2SC(=O)NC2=O)cc1)c1ccccn1 (stereo not drawn) [rosiglitazone]
Adipocyte differentiation [1]: significant induction

Molecule: O=S(=O)(Nc1cc(Cl)c(Oc2cnc3ccccc3c2)c(Cl)c1)c1ccc(Cl)cc1Cl [Compound 1, 2,4-dichloro-N-(3,5-dichloro-4-(quinolin-3-yloxy)phenyl)benzenesulfonamide]
maximal transcriptional activation of reporter genes (PPARγ): approximately 30% | lowers blood glucose levels (rodents; 0.3 mg/kg dose): over 30% | total weight gain, heart weight gain, lung weight gain (rodents; compared with rosiglitazone administration): less total weight gain, heart weight gain, and lung weight gain | Adipocyte differentiation [1]: not enhanced | pharmacokinetic and pharmacodynamic properties (T2DM patients; Phase 1 studies (4 studies)): favorable pharmacokinetic and pharmacodynamic properties | tolerability (T2DM patients; Phase 2a, multicenter, double blind, placebo controlled, T2DM patients): generally well tolerated

EC50 (nM) n=3 [2]: no activity
Molecule: N-(3,5-dichloro-4-(quinolin-3-yloxy)phenyl)-thiophene-2-carboxamide [Compound 7]

EC50 (nM) n=3 [2]: no activity
Molecule: O=S(=O)(Nc1cc(Cl)c(Oc2cnc3ccccc3c2)c(Cl)c1)c1cccs1 [Compound 15, N-(3,5-dichloro-4-(quinolin-3-yloxy)phenyl)thiophene-2-sulfonamide]
